{
  "source": "patent US20260235789A1",
  "about": "“THERAPEUTIC LENSES FOR USE AS OCULAR BANDAGE AND SIMULTANEOUSLY FOR THE ADMINISTRATION OF EYE DROPS” (EYE PHARMA SPA, priority 2021, published 2026)",
  "system": "Salmonella typhimurium",
  "experiment": "Bacterial proliferation assay (inhibition halo on agar plates)",
  "assay_type": "cell-based",
  "settings": "before vs after passage through the ionic therapeutic contact lenses; 2×10^9/mL bacteria on agar-coated plates; 24 hours; FIG. 4",
  "experimental": "The influence of lens interaction on the antibacterial effect of chloramphenicol was tested with a bacterial challenge using Salmonella typhimurium seeding 2×10^9/mL bacteria on agar-coated plates. An antibiotic disk was inserted in the middle of the plate to verify the inhibition halo around the dish after 24 hours. Both the chloramphenicol eye drops and the liquid suspending the therapeutic lenses for storage were tested. The antibacterial capacity of chloramphenicol was comparatively tested before and after the passage through the ionic therapeutic contact lenses according to the invention. The diameter of the clear halo around the chloramphenicol depot area (central white spot) was not different.",
  "data": [
    {"smiles": "O=C(N[C@H](CO)[C@H](O)c1ccc([N+](=O)[O-])cc1)C(Cl)Cl", "note": "[chloramphenicol]", "values": [
      {"measurement": "diameter of the clear halo around the chloramphenicol depot area", "result": "not different"}
    ]}
  ]
}
